Measured values published in ChEMBL document CHEMBL4765284, “Optimization of 5-substituted thiazolyl ureas and 6-substituted imidazopyridines as potential HIV-1 latency reversing agents” (Eur J Med Chem, 2020).
Values after ≈ are worked out from the molar mass of the structure shown.

Assays:
[1] = test system: Human immunodeficiency virus 1; assay: Antiviral activity against HIV-1 infected in FlpIn-HEK293 cells assessed as activation of long terminal repeat driven gene expression incubated for 72 hrs by luciferase based cellular assay; format: functional, organism-based; conditions: Human immunodeficiency virus 1, HEK293, 72 h
Cytomegalovirus = assay: Antiviral activity against CMV infected in FlpIn-HEK293 cells assessed as click beetle green reporter driven gene expression incubated for 72 hrs by luciferase based cellular assay; format: functional, organism-based; conditions: HEK293, 72 h
[2] = Aqueous solubility of compound at pH 2 by nephelometry; format: physicochemical
[3] = Aqueous solubility of compound at pH 6.5 by nephelometry; format: physicochemical
[4] = Metabolic stability in human liver microsomes assessed as half life at 1 uM measured upto 60 mins by LC-MS anlaysis; format: ADME, Microsome
[5] = Metabolic stability in human liver microsomes assessed as intrinsic clearance at 1 uM measured upto 60 mins by LC-MS analysis; format: ADME, Microsome; conditions: read-out: CLH
[6] = Metabolic stability in mouse liver microsomes assessed as half life at 1 uM measured upto 60 mins by LC-MS anlaysis; format: ADME, Microsome
[7] = Metabolic stability in mouse liver microsomes assessed as intrinsic clearance at 1 uM measured upto 60 mins by LC-MS anlaysis; format: ADME, Microsome; conditions: read-out: CLH
[8] = test system: Human immunodeficiency virus 1; assay: Antiviral activity against HIV-1 infected in FlpIn-HEK293 cells assessed as maximal activation of long terminal repeat driven gene expression at 0.25 uM incubated for 48 hrs by luciferase based cellular assay relative to control; format: functional
[9] = test system: Human immunodeficiency virus 1; assay: Antiviral activity against HIV-1 infected in J-Lat 10.6 cells assessed as maximal activation of long terminal repeat driven gene expression incubated for 48 hrs by green fluorescent protein based cellular assay; format: functional, organism-based; conditions: Human immunodeficiency virus 1, J-Lat 10.6, 48 h
[10] = test system: Human immunodeficiency virus 1; assay: Antiviral activity against HIV-1 infected in J-Lat 10.6 cells assessed as maximal activation of long terminal repeat driven gene expression at 1 uM incubated for 48 hrs by green fluorescent protein based cellular assay relative to control; format: functional
[11] = Cytotoxicity against human HepG2 cells assessed as growth incubation incubated for 48 hrs by cell titer glo assay; format: cell-based

| SMILES | EC50 [1] [nM] | EC50 (Cytomegalovirus) [nM] | further results |
| --- | --- | --- | --- |
| O=C(Nc1ncc(Cl)s1)N1CCN(c2cncnc2)CC1 | 8900 | 12000 |  |
| Cc1cnc(NC(=O)N2CCN(c3cc(C)c(C#N)cn3)CC2)s1 | 4200 | > 40000 |  |
| Cc1cc(OC2CCCN(C(=O)Nc3ncc(Cl)s3)C2)ccc1Cl (configuration not stated) | > 40000 |  |  |
| Cc1cc(NC2CCN(C(=O)Nc3ncc(Cl)s3)CC2)ccc1Cl | > 40000 | > 40000 |  |
| Cc1cnc(NC(=O)N2CCCN(c3ccc(C)c(Cl)c3)CC2)s1 | 10000 | 21000 |  |
| Cc1cnc(NC(=O)N2CCC(Nc3ccc(Cl)c(C)c3)C2)s1 (configuration not stated) | 6200 | 14000 |  |
| Cc1ccc(N2CC3(CN(C(=O)Nc4ncc(Cl)s4)C3)C2)cc1Cl | 16000 | 19000 |  |
| Cc1cnc2[nH]c(CCCOc3ccc(C)c(Cl)c3)nc2c1 | 12000 | 24000 |  |
| Cc1cnc(NC(=O)N2CCC(Nc3ccc(Cl)c(C)c3)CC2)s1 | > 40000 | 20000 |  |
| Cc1cnc(NC(=O)N2CC3(C2)CN(c2ccc(C)c(Cl)c2)C3)s1 | > 40000 | > 40000 |  |
| Cc1cnc(NC(=O)N2CCN(c3cnc(C#N)c(C)c3)CC2)s1 | 10000 | 21000 |  |
| Cc1cnc(NC(=O)CCCOc2ccc(Cl)c(C)c2)s1 |  |  | solubility kinetic [2]: < 1.1 µM; solubility kinetic [3]: 1.1 µM (≈ 0.357 µg/mL); half-life at 1 µM [4]: 10 min; microsomal CLint at 1 µM [5]: 175 µL/min/mg; half-life at 1 µM [6]: 2 min; microsomal CLint at 1 µM [7]: 815 µL/min/mg |
| Cc1cnc(NC(=O)N2CCC(N(C)c3ccc(Cl)c(C)c3)C2)s1 (configuration not stated) | > 40000 | 33000 |  |
| Cc1cc(N[C@@H]2CCCN(C(=O)Nc3ncc(Cl)s3)C2)ccc1Cl | > 40000 | > 40000 |  |
| Cc1cnc(NC(=O)N2CC(N(C)c3ccc(C)c(Cl)c3)C2)s1 | 12000 | 16000 |  |
| Cc1cnc(NC(=O)N2CCC[C@H](Nc3ccc(Cl)c(C)c3)C2)s1 | > 40000 |  |  |

| SMILES | EC50 [1] [nM] | EC50 (Cytomegalovirus) [nM] | further results |
| --- | --- | --- | --- |
| Cc1cc(N(C)C2CCN(C(=O)Nc3ncc(Cl)s3)CC2)ccc1Cl | > 40000 | > 40000 |  |
| Cc1cc(OC2CCN(C(=O)Nc3ncc(Cl)s3)CC2)ccc1Cl | 20000 | 20000 |  |
| Cc1cnc(NC(=O)N2CCN(c3ccc(C)c(Cl)c3)CC2C)s1 (configuration not stated) | 5000 | 5200 |  |
| Cc1cnc2sc(CCCOc3ccc(C)c(Cl)c3)nc2c1 | > 40000 | > 40000 |  |
| Cc1cnc2[nH]c(CCCOc3cnc(Cl)c(Cl)c3)nc2c1 | 21000 | 34000 |  |
| Cc1ccc(OCCCc2nc3ncc(Cl)cc3s2)cc1Cl | > 40000 | > 40000 |  |
| Cc1ccc(OCCCc2nc3cc(Cl)cnc3[nH]2)cc1Cl | 9400 | 12000 | solubility kinetic [2]: 1.6 µM (≈ 0.538 µg/mL); solubility kinetic [3]: < 1.6 µM; half-life at 1 µM [4]: 5 min; microsomal CLint at 1 µM [5]: 329 µL/min/mg; half-life at 1 µM [6]: < 2 min; microsomal CLint at 1 µM [7]: > 866 µL/min/mg |
| Cc1cnc(NC(=O)N2CCC[C@@H](Nc3ccc(Cl)c(C)c3)C2)s1 | > 40000 | > 40000 |  |
| Cc1cnc(NC(=O)N2CCC(Oc3ccc(Cl)c(C)c3)CC2)s1 | > 40000 | 40000 |  |
| Cc1ccc(N2CCCN(C(=O)Nc3ncc(Cl)s3)CC2)cc1Cl | 22000 | 19000 |  |
| Cc1cc(N(C)C2CCN(C(=O)Nc3ncc(Cl)s3)C2)ccc1Cl (configuration not stated) | 11000 | 20000 |  |
| Cc1cnc2[nH]c(CCCOc3ccc(Cl)c(Cl)c3)nc2c1 | 14000 | 28000 |  |
| Cc1cc(N[C@H]2CCCN(C(=O)Nc3ncc(Cl)s3)C2)ccc1Cl | > 40000 |  |  |
| Cc1cnc(NC(=O)N2CCN(c3cncnc3)CC2)s1 | > 40000 | > 40000 |  |
| Cc1cnc(NC(=O)N2CCN(c3ccc(C)c(Cl)c3)C(C)C2)s1 (configuration not stated) | 8900 | 6500 |  |
| Cc1ccc(N2CCN(C(=O)Nc3nccs3)CC2)cc1Cl | 3400 | 4000 |  |

Further compounds by falling EC50 [1], results first:

| EC50 [1] [nM] | EC50 (Cytomegalovirus) [nM] | SMILES | further results |
| --- | --- | --- | --- |
| 3300 | 1200 | Clc1cnc2[nH]c(CCCOc3ccc(Cl)c(Cl)c3)nc2c1 |  |
| 3200 | 2800 | Cc1cnc2[nH]c(N3CCN(c4ccc(C)c(Cl)c4)CC3)nc2c1 | solubility kinetic [2]: 50 µM (≈ 17.1 µg/mL); solubility kinetic [3]: < 1.6 µM; half-life at 1 µM [4]: 15 min; microsomal CLint at 1 µM [5]: 115 µL/min/mg; half-life at 1 µM [6]: 8 min; microsomal CLint at 1 µM [7]: 224 µL/min/mg |
| 2700 | 5500 | Cc1cnc(NC(=O)N2CCN(c3ccc(Cl)cc3)CC2)s1 |  |
| 2500 | > 40000 | Cc1cnc(NC(=O)C2CCN(c3ccc(C)c(Cl)c3)CC2)s1 |  |
| 2000 | > 40000 | Cc1ccc(N2CCC(C(=O)Nc3ncc(Cl)s3)CC2)cc1Cl |  |
| 2000 | 5200 | Cc1cnc(NC(=O)N2CCC(Oc3ccc(Cl)c(C)c3)C2)s1 (configuration not stated) |  |
| 1700 | 5000 | Cc1cnc(NC(=O)N2CCN(c3ccccc3)CC2)s1 |  |
| 1500 | 2500 | Cc1cc(OC2CCN(C(=O)Nc3ncc(Cl)s3)C2)ccc1Cl (configuration not stated) |  |
| 1500 | 3600 | N#Cc1cnc(NC(=O)N2CCN(c3ccc(Cl)cc3)CC2)s1 |  |
| 1300 | 130 | Cc1cnc2[nH]c(N3CCN(c4cnc(Cl)c(Cl)c4)CC3)nc2c1 |  |
| 1300 | > 2000 | Cc1ccc(N2CCN(C(=O)Nc3ncc(C(F)(F)F)s3)CC2)cc1Cl |  |
| 1300 | 1500 | Cc1ccc(N2CCN(C(=O)Nc3ncc(Cl)s3)C(C)C2)cc1Cl (configuration not stated) |  |
| 980 | 2600 | Clc1cnc2[nH]c(N3CCN(c4ccc(Cl)c(Cl)c4)CC3)nc2c1 |  |
| 930 | 2800 | Cc1ccc(N(C)C2CN(C(=O)Nc3ncc(Cl)s3)C2)cc1Cl |  |
| 930 | 490 | Cc1cnc(NC(=O)N2CCN(c3ccc(Cl)c(Cl)c3)CC2)s1 |  |
| 920 | 1800 | O=C(Nc1ncc(Cl)s1)N1CCN(c2cc(C(F)(F)F)c(Cl)cn2)CC1 |  |
| 820 | 3700 | Cc1ccc(N2CCN(C(=O)Nc3ncc(Cl)s3)CC2C)cc1Cl (configuration not stated) |  |
| 750 | 820 | Cc1cnc2[nH]c(N3CCN(c4ccc(Cl)c(Cl)c4)CC3)nc2c1 |  |

| EC50 [1] [nM] | EC50 (Cytomegalovirus) [nM] | SMILES | further results |
| --- | --- | --- | --- |
| 730 | > 40000 | Cc1cnc(NC(=O)N2CCN(c3cc(C(F)(F)F)c(Cl)cn3)CC2)s1 |  |
| 710 | 2300 | Cc1cc(N2CCN(C(=O)Nc3ncc(C#N)s3)CC2)ccc1Cl |  |
| 700 | 480 | O=C(Nc1ncc(C(F)(F)F)s1)N1CCN(c2cnc(Cl)c(Cl)c2)CC1 |  |
| 670 | 3000 | Cc1cnc(NC(=O)N2CC(Nc3ccc(C)c(Cl)c3)C2)s1 |  |
| 600 | 2300 | Cc1cnc(NC(=O)N2CCN(c3ccc(Cl)c(C)c3)CC2)s1 |  |
| 530 | 1900 | Cc1ccc(OC2CN(C(=O)Nc3ncc(Cl)s3)C2)cc1Cl |  |
| 470 | 5000 | Cc1cnc(NC(=O)N2CCN(c3ccc(C)c(Cl)c3)CC2)s1 |  |
| 460 | 1000 | Cc1cc(N2CCN(C(=O)Nc3ncc(Cl)s3)CC2)ncc1C#N |  |
| 400 | 890 | Cc1cc(N2CCN(C(=O)Nc3ncc(Cl)s3)CC2)ccc1Cl |  |
| 350 | 1640 | O=C(Nc1ncc(Cl)s1)N1CCN(c2ccc(Cl)cc2)CC1 |  |
| 320 | > 300 | Cc1ccc(N2CCN(c3nc4cc(Br)cnc4[nH]3)CC2)cc1Cl |  |
| 310 | 800 | O=C(Nc1ncc(Cl)s1)N1CCN(c2ccc(Cl)c(Cl)c2)CC1 |  |
| 300 | 570 | Cc1cnc(NC(=O)N2CCN(c3cnc(Cl)c(Cl)c3)CC2)s1 |  |
| 240 | 2300 | Cc1ccc(N2CCN(C(=O)Nc3ncc(C#N)s3)CC2)cc1Cl |  |
| 230 | 1700 | Cc1ccc(NC2CN(C(=O)Nc3ncc(Cl)s3)C2)cc1Cl | solubility kinetic [2]: 1.6 µM (≈ 0.572 µg/mL); solubility kinetic [3]: 1.6 µM (≈ 0.572 µg/mL); half-life at 1 µM [6]: 36 min; microsomal CLint at 1 µM [7]: 49 µL/min/mg; %max [8]: 63%; EC50 [9]: 1500 nM; %max [10]: 31%; CC50 at 48 h [11]: 330 nM |
| 230 | 1800 | Cc1cnc(NC(=O)N2CCN(c3cccc(C#N)c3)CC2)s1 |  |
| 220 | 1900 | Cc1cnc(NC(=O)N2CC(Oc3ccc(C)c(Cl)c3)C2)s1 |  |
| 210 | 830 | Cc1cc(N2CCN(C(=O)Nc3ncc(Cl)s3)CC2)cnc1C#N |  |
